Molecular target: human APJ receptor (Homo sapiens (Human), UniProt P35414)
Test: biochemical
Type: biochemical
Conditions: read-out: Activity hAPJ SPA EC50 IP
Summary of the method: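 Agonist-stimulated [35S]GTPγS (0.2 nM) binding was read by SPA after 90 min at room temperature. Buffer: 20 mM HEPES pH 7.5 with 5 mM MgCl2, 200 mM NaCl, 3 μM GDP, 0.1% BSA; membranes were from a stable human APJ CHO line. EC50 values are averages of independent runs, fitted by non-linear regression.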

human APJ receptor, sequence (P35414 whole entry): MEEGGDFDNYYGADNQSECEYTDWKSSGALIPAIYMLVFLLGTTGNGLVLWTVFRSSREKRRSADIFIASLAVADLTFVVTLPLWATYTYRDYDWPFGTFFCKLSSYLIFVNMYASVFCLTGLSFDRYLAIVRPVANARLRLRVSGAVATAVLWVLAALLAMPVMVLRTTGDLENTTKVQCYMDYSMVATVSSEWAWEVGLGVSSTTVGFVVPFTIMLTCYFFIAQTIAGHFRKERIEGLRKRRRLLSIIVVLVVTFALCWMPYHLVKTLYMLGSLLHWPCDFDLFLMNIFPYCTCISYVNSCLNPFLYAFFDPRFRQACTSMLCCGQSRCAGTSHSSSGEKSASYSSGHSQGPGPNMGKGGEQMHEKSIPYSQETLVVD

Row | SMILES | EC50 [nM]
1 | COc1cccc(OC)c1-n1c(NS(=O)(=O)[C@@H](C)[C@@H](OC(C)C)c2ncc(C)cn2)nnc1-c1cccnc1 (single isomer, unassigned) [Example 627.0, (1R,2R)-N-(4-(2,6-dimethoxyphenyl)-5-(pyridin-3-yl)-4H-1,2,4-triazol-3-yl)-1-isopropoxy-1-(5-methylpyrimidin-2-yl)propane-2-sulfonamide or (1S,2S)-N-(4-(2,6-dimethoxyphenyl)-5-(pyridin-3-yl)-4H-1,2,4-triazol-3-yl)-1-isopropoxy-1-(5-methylpyrimidin-2-yl)propane-2-sulfonamide] | 1.1
2 | COc1cccc(-c2nnc(NS(=O)(=O)C[C@H](O)c3ccc(F)cc3S(C)(=O)=O)n2-c2c(OC)cccc2OC)n1 (single isomer, unassigned) [Example 268.0, (R)—N-(4-(2,6-dimethoxyphenyl)-5-(6-methoxypyridin-2-yl)-4H-1,2,4-triazol-3-yl)-2-(4-fluoro-2-(methylsulfonyl)phenyl)-2-hydroxyethanesulfonamide or (S)—N-(4-(2,6-dimethoxyphenyl)-5-(6-methoxypyridin-2-yl)-4H-1,2,4-triazol-3-yl)-2-(4-fluoro-2-(methylsulfonyl)phenyl)-2-hydroxyethanesulfonamide] | 0.17
3 | COc1cccc(-c2nnc(NS(=O)(=O)[C@@H](C)[C@H](OC)c3ncc(C)cn3)n2-c2cccc(C#N)c2)n1 [Example 56.0, (1R,2S)-N-(4-(3-cyanophenyl)-5-(6-methoxy-2-pyridinyl)-4H-1,2,4-triazol-3-yl)-1-methoxy-1-(5-methyl-2-pyrimidinyl)-2-propanesulfonamide] | 31
4 | COc1cccc(OC)c1-n1c(NS(=O)(=O)[C@@H](C)Cc2ncc(F)cn2)nnc1-c1cncc(Cl)c1 (single isomer, unassigned) [Example 221.0] | 35
5 | COc1cccc(F)c1-n1c(NS(=O)(=O)[C@@H](C)[C@H](C)c2ncc(C)cn2)nnc1-c1cncc(C)c1 (atropisomer, axis not shown) [Example 688.0, (2S,3R, P)-N-(4-(2-fluoro-6-methoxyphenyl)-5-(5-methyl-3-pyridinyl)-4H-1,2,4-triazol-3-yl)-3-(5-methyl-2-pyrimidinyl)-2-butanesulfonamide 2,2,2-trifluoroacetate and (2S,3R, M)-N-(4-(2-fluoro-6-methoxyphenyl)-5-(5-methyl-3-pyridinyl)-4H-1,2,4-triazol-3-yl)-3-(5-methyl-2-pyrimidinyl)-2-butanesulfonamide 2,2,2-trifluoroacetate] | 0.66
6 | COc1cccc(OC)c1-n1c(NS(=O)(=O)/C(C)=C(\C)c2ncc(F)cn2)nnc1-c1cncc(C)c1 [Example 504.0, (2E)-N-(4-(2,6-dimethoxyphenyl)-5-(5-methyl-3-pyridinyl)-4H-1,2,4-triazol-3-yl)-3-(5-fluoro-2-pyrimidinyl)-2-butene-2-sulfonamide] | 18
7 | COc1cccc(OC)c1-n1c(NS(=O)(=O)[C@@H](C)[C@H](OC)c2ncc(C)cn2)nnc1-c1cccc(OCC(C)(C)O)n1 [Example 193.0, (1R,2S)-N-(4-(2,6-dimethoxyphenyl)-5-(6-(2-hydroxy-2-methylpropoxy)pyridin-2-yl)-4H-1,2,4-triazol-3-yl)-1-methoxy-1-(5-methylpyrimidin-2-yl)propane-2-sulfonamide] | 61
8 | CCO[C@H](c1ncc(Cl)cn1)[C@H](C)S(=O)(=O)Nc1nnc(-c2cncc(C)c2)n1-c1c(OC)cccc1OC [Example 429.0, (1R,2S)-1-(5-chloropyrimidin-2-yl)-N-(4-(2,6-dimethoxyphenyl)-5-(5-methylpyridin-3-yl)-4H-1,2,4-triazol-3-yl)-1-ethoxypropane-2-sulfonamide] | 0.27
9 | COc1cccc(-c2nnc(NS(=O)(=O)[C@@H](C)[C@H](OC)c3ncc(C)cn3)n2-c2ccccc2)n1 [Example 34.0, (1R,2S)-1-methoxy-N-(5-(6-methoxypyridin-2-yl)-4-phenyl-4H-1,2,4-triazol-3-yl)-1-(5-methylpyrimidin-2-yl)propane-2-sulfonamide] | 4.2
